According to patent US8202868B2, “4-piperazinyl-pyrimidine compounds suitable for treating disorders that respond to modulation of the dopamine D3 receptor” (Abbott GmbH & Co. KG, priority 2004, dated 2012):

Tests used:
[1] = molecular target: T1, human dopamine D2L receptors (long isoform) (Homo sapiens, UniProt P14416); assay: Dopamine D2L receptor binding, [125I] iodospiperone displacement; conditions: membranes of HEK-293 cells, 0.01 nM [125I] iodospiperone, 25° C., 60 minutes; read-out: Ki(D2)
T1 construct: expressed in transfected cells; host or cells: HEK-293
Experimental: (§1) The substance to be tested was either dissolved in methanol/Chremophor® (BASF-AG) or in dimethyl sulfoxide and then diluted with water to the desired concentration.
(§2) Each assay mixture was run in triplicate.
The incubation buffer contained 50 mM tris, 120 mM NaCl, 5 mM KCl, 2 mM CaCl2, 2 mM MgCl2 and 0.1% bovine serum albumin. The buffer was adjusted to pH 7.4 with HCl.
(§3) After having been incubated at 25° C. for 60 minutes, the assay mixtures were filtered through a Whatman GF/B glass fiber filter under vacuum using a cell collecting device. The filters were transferred to scintillation viols using a filter transfer system. After 4 ml of Ultima Gold® (Packard) have been added, the samples were shaken for one hour and the radioactivity was then counted in a Beta-Counter (Packard, Tricarb 2000 or 2200CA). The cpm values were converted into dpm using a standard quench series and the program belonging to the instrument.
(§4) The inhibition curves were analyzed by means of iterative nonlinear regression analysis using the Statistical Analysis System (SAS) which is similar to the “LIGAND” program described by Munson and Rodbard.

[2] = molecular target: T2, human dopamine D3 receptors (Homo sapiens, UniProt P35462); assay: Dopamine D3 receptor binding, [125I]-iodosulpride displacement; conditions: for Ki: membranes of HEK-293 cells, 0.1 nM [125I]-iodosulpride, 25° C., 60 minutes; for Ki(D2)/Ki(D3): selectivity ratio of receptor binding constants
T2 construct: expressed in transfected cells; host or cells: HEK-293
Experimental: as §1, §2
The incubation buffer contained 50 mM tris, 120 mM NaCl, 5 mM KCl, 2 mM CaCl2, 2 mM MgCl2 and 0.1% bovine serum albumin, 10 μM quinolone and 0.1% ascorbic acid (prepared fresh daily). The buffer was adjusted to pH 7.4 with HCl.
as §3, §4

T2 sequence (P35462 whole entry): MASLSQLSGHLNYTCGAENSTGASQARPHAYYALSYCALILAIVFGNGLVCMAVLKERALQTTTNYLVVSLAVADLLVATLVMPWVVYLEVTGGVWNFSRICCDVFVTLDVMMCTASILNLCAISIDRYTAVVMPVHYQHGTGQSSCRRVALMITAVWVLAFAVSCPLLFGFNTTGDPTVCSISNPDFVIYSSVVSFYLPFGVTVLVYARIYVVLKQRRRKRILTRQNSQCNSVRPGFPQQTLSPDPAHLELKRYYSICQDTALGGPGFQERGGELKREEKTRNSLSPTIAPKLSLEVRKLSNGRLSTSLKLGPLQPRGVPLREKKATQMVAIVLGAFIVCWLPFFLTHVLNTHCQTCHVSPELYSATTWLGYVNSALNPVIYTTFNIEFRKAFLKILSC
T1 sequence (P14416 whole entry, canonical isoform): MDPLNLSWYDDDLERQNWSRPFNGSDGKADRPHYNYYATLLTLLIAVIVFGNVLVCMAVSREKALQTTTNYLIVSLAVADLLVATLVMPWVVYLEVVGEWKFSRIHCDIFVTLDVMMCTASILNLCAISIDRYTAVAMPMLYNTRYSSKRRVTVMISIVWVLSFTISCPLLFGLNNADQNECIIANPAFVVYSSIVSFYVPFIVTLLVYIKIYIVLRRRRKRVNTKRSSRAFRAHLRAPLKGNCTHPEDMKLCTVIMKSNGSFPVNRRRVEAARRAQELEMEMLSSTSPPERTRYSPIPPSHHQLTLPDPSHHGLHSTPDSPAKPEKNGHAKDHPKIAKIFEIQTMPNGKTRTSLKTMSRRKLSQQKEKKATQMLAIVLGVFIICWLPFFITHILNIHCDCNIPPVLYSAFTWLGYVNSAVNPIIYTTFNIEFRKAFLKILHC

Row | Ki [1] [µM] | Ki [2] [µM] | Ki(D2)/Ki(D3) [2] | Compound
1 | 0.104 | 0.0026 | 40 | Cn1c(OCCCN2CCN(c3cc(C4(C)CC4)nc(C(C)(C)C)n3)CC2)nnc1-c1ccccc1 [Example 63, 2-tert-Butyl-4-(1-methyl-cyclopropyl)-6-{4-[3-(4-methyl-5-phenyl-4H-[1,2,4]triazol-3-yloxy)-propyl]-piperazin-1-yl}-pyrimidine]
2 | 0.147 | 0.0016 | 92 | Cn1c(OCCCN2CCN(c3cc(C4CCC4)nc(C(C)(C)C)n3)CC2)nnc1-c1ccccc1 [Example 64, 2-tert-Butyl-4-cyclobutyl-6-{4-[3-(4-methyl-5-phenyl-4H-[1,2,4]triazol-3-yloxy)-propyl]-piperazin-1-yl}-pyrimidine]
3 | 0.797 | 0.0221 | 36 | Cn1cnnc1SCCCN1CCN(c2cc(C(F)(F)F)nc(C3(C)CC3)n2)CC1 [Example 65, 2-(1-Methyl-cyclopropyl)-4-{4-[3-(4-methyl-4H-[1,2,4]triazol-3-ylsulfanyl)-propyl]-piperazin-1-yl}-6-trifluoromethyl-pyrimidine]
4 | 0.102 | 0.00096 | 106 | Cl.Cn1cccc1-c1nnc(SCCCN2CCN(c3cc(C4CCC4)nc(C(C)(C)C)n3)CC2)n1C [Example 66, 2-tert-Butyl-4-cyclobutyl-6-(4-{3-[4-methyl-5-(1-methyl-1H-pyrrol-2-yl)-4H-[1,2,4]triazol-3-ylsulfanyl]-propyl}-piperazin-1-yl)-pyrimidine hydrochloride]
